# Legend:
# HL-60 cells = test: Proliferation-inhibitory effect against human myelocytic leukemia HL-60 cells ([3H]thymidine incorporation); format: cell-based; settings: 20 h + 4 h with [3H]thymidine, 37° C.
# Experimental: Proliferation-inhibitory effect (IC50) of compounds in Examples against human myelocytic leukemia HL-60 cells HL-60 cells (human leukemia cell line) were suspended in GIT medium (Wako Pure Chemicals) containing a test compound to a concentration of 2×10^5 cells/ml, and 0.2 ml of the suspension was transferred to each well of a microwell plate having 96 wells. […] To determine the amount of thymidine incorporated into the cells, an acid-insoluble fraction was collected by a glass filter, and the radioactivity was measured by a liquid scintillation counter. The concentration of the drug which was required for 50% reduction of incorporated radioactivity from that of the control group without medication was taken as the IC50 value of the compound.
# [1] = test system: murine breast cancer MM46 cells; test: Antitumor activity in C3H mice inoculated with murine breast cancer MM46 cells; format: in vivo, C3 H mice; settings: i.p., 0.25 mg/mouse per administration; for life-span prolongation ratio T/C: once a day for 4 days from 2nd day, calculated only on survived days of died mice; for No. of survivors/No. of tested animals: once a day for 4 days, on the 60th day
# From the text: (§1) Antitumor activity of compounds in Examples
# C3 H mice were intraperitoneally inoculated with 1×10^4 murine breast cancer MM46 cells, and then intraperitoneally given a compound of Examples dissolved in physiological saline once a day for 4 days from the 2nd day after the inoculation. The life-span prolongation ratio* (T/C %) against the control group without medication and the number of surviving mice on the 60th day are shown in Table 3.
# *Calculated only on the survived days of died mice
# P388 cells = test: Antitumor activity in CDF1 mice inoculated with P388 cells; format: in vivo; settings: i.p., 0.5 mg/mouse, twice (1 hour and 5 days after inoculation)
# Experimental: CDF1 mice (5 heads per group) were intraperitoneally inoculated with 1×10^6 P388 cells per mouse, and then intraperitoneally given 0.5 mg/mouse of the compound in Example 2 dissolved in physiological saline, twice in total, i.e. 1 hour and 5 days after the inoculation. The life-span prolongation ratio (T/C %) against the control group without medication was 151%.
# Sarcoma 180 cells = test: Antitumor activity in ICR mice inoculated with Sarcoma 180 cells; format: in vivo; settings: Sarcoma 180, ICR mice, i.p., 0.33 mg/mouse; for life-span prolongation ratio T/C: 3 times (1 hour, 1 day, 2 days after inoculation), calculated only on survival days of died mice; for No. of survivors/No. of tested animals: 3 times, on the 60th day
# Experimental: as §1
# ICR mice were intraperitoneally inoculated with 1×10^5 Sarcoma 180 cells per mouse, and then intraperitoneally given 0.33 mg/mouse of a compound of Examples dissolved in physiological saline, three times in total, i.e. 1 hour, 1 day and 2 days after the inoculation. The life-span prolongation ratio* (T/C %) against the control group without medication and the number of surviving mice on the 60th day are shown in Table 2.
# *Calculated only on the survival days of died mice.
Compound,IC50 (HL-60 cells) [mg/L],life-span prolongation ratio T/C [1] [%],No. of survivors/No. of tested animals [1],further results
"CCCCCCCCCCCCCCCCCCOCC(COCCOCCOCC[N+](C)(C)C)Oc1ncccn1.[Cl-] (stereo not shown) [Example 14, N-2-[2-[2-[3-Octadecyloxy-2-(pyrimidin-2-yloxy)propoxy]ethoxy]ethoxy]ethyl-N,N,N-trimethylammonium chloride]",2.5,–,–,–
"CCCCCCCCCCCCCCCCCCOCC(COCCOCC[n+]1cccc(O)c1)Oc1ncccn1.[Cl-] (stereo not shown) [Example 9, 3-Hydroxy-1-[2-[2-[3-octadecyloxy-2-(pyrimidin-2-yloxy)propoxy]ethoxy]ethyl]pyridinium chloride]",–,132,1/3,–
"CCCCCCCCCCCCCCCCCCOCC(COCCOCC[n+]1ccn(C)c1)Oc1ncccn1.[Cl-] (stereo not shown) [Example 10, 1-Methyl-3-[2-[2-[3-octadecyloxy-2-(pyrimidin-2-yloxy)propoxy]ethoxy]ethyl]imidazolium chloride]",0.63,–,–,–
"CCCCCCCCCCCCCCCCCCOCC(COCCOCC[n+]1cccc(C(N)=O)c1)Oc1ncccn1.[Cl-] (stereo not shown) [Example 5, 3-Carbamoyl-1-[2-[2-[3-octadecyloxy-2-(pyrimidin-2-yloxy)propoxy]ethoxy]ethyl]pyridinium chloride]",0.63,–,–,–
"CCCCCCCCCCCCCCCCCCOCC(COCCOCC[N+](C)(C)C)Oc1ccc(Cl)nn1 (stereo not shown) [Example 2, N-[2-[2-[2-(3-Chloropyridazine-6-yloxy)-3-octadecyloxy]propoxy]ethoxy]ethyl-N,N,N-trimethylammonium chloride]",1.25,174,1/5,life-span prolongation ratio (T/C %) (P388 cells): 151%
"CCCCCCCCCCCCCCCCCCOCC(COCCOCC[n+]1ccc(C(C)(C)C)cc1)Oc1ncccn1 (stereo not shown) [Example 8, 4-t.-Butyl-1-[2-[2-[3-octadecyloxy-2-(pyrimidin-2-yloxy)propoxy]ethoxy]ethyl]pyridinium chloride]",1.25,–,–,–
"CCCCCCCCCCCCCCCCCCOCC(COCCOCC[n+]1ccsc1)Oc1ncccn1.[Cl-] (stereo not shown) [Example 4, 3-[2-[2-[3-Octadecyloxy-2-(pyrimidin-2-yloxy)propoxy]ethoxy]ethyl]thiazolium chloride]",2.5,–,–,life-span prolongation ratio T/C (Sarcoma 180 cells): 244%; No. of survivors/No. of tested animals (Sarcoma 180 cells): 0/4
"CCCCCCCCCCCCCCCCCCOCC(COCCOCC[N+](C)(C)C)Oc1ncccn1.[Cl-] (stereo not shown) [Example 1, N-2-[2-[3-Octadecyloxy-2-(pyrimidin-2-yloxy)propoxy]ethoxy]ethyl-N,N,N-trimethylammonium chloride]",0.63,160,4/5,life-span prolongation ratio T/C (Sarcoma 180 cells): 200%; No. of survivors/No. of tested animals (Sarcoma 180 cells): 0/5
"CCCCCCCCCCCCCCCCCCOCC(COCCOCC[N+](C)(C)C)Oc1cccnn1.[Cl-] (stereo not shown) [Example 3, N-[2-[2-[3-Octadecyloxy-2-(pyridazin-3-yloxy)propoxy]ethoxy]ethyl]-N,N,N-trimethylammonium chloride]",0.32,–,–,life-span prolongation ratio T/C (Sarcoma 180 cells): 269%; No. of survivors/No. of tested animals (Sarcoma 180 cells): 0/5
"CCCCCCCCCCCCCCCCCCOCC(COCCOCC[N+](C)(C)C)Oc1ccncn1.[Cl-] (stereo not shown) [Example 11, N-2-[2-[3-Octadecyloxy-2-(pyrimidin-4-yloxy)propoxy]ethoxy]ethyl-N,N,N-trimethylammonium chloride]",1.25,–,–,–
"CCCCCCCCCCCCCCCCCCOCC(COCCOCC[n+]1cccc(C(=O)[O-])c1)Oc1ncccn1 (stereo not shown) [Example 6, 1-[2-[2-[3-Octadecyloxy-2-(pyrimidin-2-yloxy)propoxy]ethoxy]ethyl]pyridinio-3-carboxylate]",–,121,4/5,–
"CCCCCCCCCCCCCCCCCCOCC(COCCOCC[n+]1cccc(C(N)=O)c1)Oc1ccncn1.[Cl-] (stereo not shown) [Example 12, 3-Carbamoyl-1-[2-[2-[3-octadecyloxy-2-(pyrimidin-4-yloxy)propoxy]ethoxy]ethyl]pyridinium chloride]",2.5,–,–,–

# Source: US4920134A, “2-O-pyrimidinyl glycerol derivatives” (Takeda Chemical Industries, Ltd., priority 1987, dated 1990)
